Patent publication US10800790B2, “Sesquiterpenoid STAT3 inhibitors” (University of Hawaii, priority 2013, dated 2020)

Tests used:
[1] = test system: U251MG glioblastoma cells; assay: CyQuant cell viability/proliferation assay, U251MG; assay type: cell-based, human; design: key to Activity against U251: +, active; −, no activity; +/−, poorly active; settings: for U251MG % inhibition / inhibition at 5 µM: at 5 μM, 72 h; for inhibition at 5 µM: Homo sapiens, U-251; for Activity against U251: Table 1 grade, Table 1/FIG. 2 compound numbering; for Inhibitory potency compared with 22 (CyQuant): 72-h treatment, FIG. 10, synthetic derivatives of 22
Protocol: (§1) The cell viability assay was performed as previously reported (Zhang X, et al. (2010)). Briefly, a 10 millimolar concentration stock solution in dimethylsulfoxide (DMSO) of the tested molecule was first prepared. Next, the stock solution was diluted down to various working solutions in water. Thus, a formulation of the tested compound in a DMSO/water mixture was used to test for cell viability. (A novel small-molecule disrupts STAT3 SH2 domainphosphotyrosine interactions and STAT3-dependent tumor processes, Biochem Pharmacol 79:1398-1409; Zhao W, Jaganathan S, & Turkson J (2010), A cell-permeable STAT3 SH2 domain mimetic inhibits STAT3 activation and induces antitumor cell effects in vitro. J Biol Chem. 285:35855-35865). Cells (U251MG, MDA-MB-231 or NIH3T3) were obtained from ATCC (Manassas, Va.) and were cultured in 96-well plates at 2,000 cells per well for 24 h and were treated with compounds (5 micromolar concentration) for 72 h. Cell viabilty was determined using CyQuant assay, according to the manufacturer's (Invitrogen, CA, USA) instructions. Relative viability of the treated cells was normalized to the DMSO-treated control cells.

[2] = test system: MDA-MB-231 breast cancer cells; assay: CyQuant cell viability/proliferation assay, MDA-MB-231; assay type: cell-based, human; settings: for MDA-MB-231 % inhibition / inhibition at 5 µM: at 5 μM, 72 h, Table 3 numbering (isolates 1-16); for inhibition at 5 µM: Homo sapiens, MDA-MB-231; for Inhibition of breast cancer MDA-MB-231, in words: 72-h treatment, FIG. 10
Protocol: as §1

[3] = test system: normal NIH3T3 mouse fibroblasts; assay: CyQuant cell viability/proliferation assay, NIH3T3; assay type: cell-based; settings: Table 3 numbering (isolates 1-16); for NIH-3T3 % inhibition / inhibition at 5 µM: at 5 μM, 72 h; for inhibition at 5 µM: Mus musculus, NIH3T3, read-out: NIH-3T3 % inhibition
Protocol: as §1

[4] = test system: pY705STAT3 in U251MG or MDA-MB-231 cells; assay: Immunoblotting of pY705STAT3 in treated tumor cells; settings: 5 micromolar, 0-24 h; U251MG or MDA-MB-231; Table 1/FIG. 2 numbering
Protocol: Positions of STATs:DNA complexes or proteins in gel are labeled; control lanes (0) represent nuclear extracts or whole-cell lysates prepared from 0.05% DMSO-treated cells. Data are representative of at least three to four independent determinations.
Lysates of equal total protein prepared in the lysis buffer (50 mM Hepes, pH 7.5, 150 mM NaCl, 2 mM EDTA, 1% Triton X-100, 0.1% SDS), were subjected to IP or Western blotting analysis. Antibodies against STAT3, pY705STAT3, Src, pY416Src, Erk1/2, and pT202/Y204Erk1/2 and GAPDH (Cell Signaling Technology, Danvers, Mass.), and anti-β-actin, and HSP105 (Santa Cruz Biotechnology, Dallas, Tex.) are from the designated sources.
Whole-cell lysates were prepared in boiling SDS sample loading buffer to extract total proteins, as reported previously. […] Nitrocellulose membranes were probed with primary antibodies, and the detection of horseradish peroxidase-conjugated secondary antibodies by enhanced chemiluminescence (Amersham) was performed. Antibodies used were monoclonal anti-pYSTAT3 and anti-STAT3 antibodies (Cell Signaling Technology, Danvers, Mass.).

[5] = Table 3 numbering (isolates 1-16)

Q: Which results are given for “8α-(4-hydroxytigloyloxy)-hirsutinolide [Compound 3]”?
A: U251MG % inhibition [1, 5]: ne (ne, no effect inhibition); MDA-MB-231 % inhibition [2]: ne (ne, no effect inhibition); NIH-3T3 % inhibition [3]: ne (ne, no effect inhibition)

Q: How did the U251MG % inhibition [1, 5] turn out when CC=C(C)C(=O)OC1CC(C)C2(O)CCC(C)(C=C3OC(=O)C(CO)=C31)O2 (stereo not drawn) [Compound 1, 8α-(2′Z-tigloyloxy)hirsutinolide] was run?
A: The U251MG % inhibition was “ne (ne, no effect inhibition)”.

Q: What about the MDA-MB-231 % inhibition [2] of the same compound?
A: The MDA-MB-231 % inhibition was “ne (ne, no effect inhibition)”.

Q: What about the NIH-3T3 % inhibition [3] of the same compound?
A: The NIH-3T3 % inhibition was “ne (ne, no effect inhibition)”.

Q: With CC=C(C)C(=O)OCC1=C2C(=CC3(C)CCC(O)(O3)C(C)CC2O)OC1=O (stereo not drawn) [Compound 4, 8α-hydroxy-13-O-tigloyl-hirsutinolide] as the compound, how does the “Inhibitory effect on viability of U251MG (tumor) cells, in words” value ([1]; 5 micromolar, Table 3 numbering (isolates 1-16)) read?
A: Its value is “high inhibitory effect”.

Q: And the U251MG % inhibition [1, 5]?
A: Its U251MG % inhibition is 80.9%.

Q: What about the MDA-MB-231 % inhibition [2] of the same compound?
A: Its MDA-MB-231 % inhibition is 26.2%.

Q: What about the “Inhibitory effect on NIH3T3 fibroblasts, in words” value ([3]; 5 micromolar) of the same compound?
A: The value was “lower inhibitory effect”.

Q: And the NIH-3T3 % inhibition [3]?
A: The NIH-3T3 % inhibition was 32.1%.

Q: For C=C(C)C(=O)OC1CC(C)C2(O)CCC(C)(C=C3OC(=O)C(CO)=C31)O2 (stereo not drawn) [Compound 5, 8α-(2-methylacryloyloxy)-hirsutinolide], which U251MG % inhibition [1, 5] is on record?
A: Its U251MG % inhibition is “ne (ne, no effect inhibition)”.

Q: What about the MDA-MB-231 % inhibition [2] of the same compound?
A: The MDA-MB-231 % inhibition was “ne (ne, no effect inhibition)”.

Q: What about the NIH-3T3 % inhibition [3] of the same compound?
A: The NIH-3T3 % inhibition was “ne (ne, no effect inhibition)”.

Q: CC1(C)C[C@H](O)C[C@@]2(C)OC(=O)C=C12 [Compound 12, loliolide] was tested. Which inhibition at 5 µM [1, 5] did it give?
A: Its inhibition at 5 µM is < 6%.

Q: And the inhibition at 5 µM [2]?
A: Its inhibition at 5 µM is < 6%.

Q: And the inhibition at 5 µM [3]?
A: The inhibition at 5 µM was < 6%.

Q: Which results are given for O=c1cc(-c2ccc(O)cc2)oc2cc(O)cc(O)c12 [Compound 15, apigenine]?
A: inhibition at 5 µM [1, 5]: < 6%; inhibition at 5 µM [2]: < 6%; inhibition at 5 µM [3]: < 6%

Q: Which “Activity against U251” value [1] does the source give for CC=C(C)C(=O)OC1CC(C)C2(OC)CCC(C)(C=C3OC(=O)C(CO)=C31)O2 (centres unmarked) [Compound 17] here?
A: The value was “−”.

Q: CC(=CCO)C(=O)OC1CC(C)C2(O)CCC(C)(C=C3OC(=O)C(CO)=C31)O2 (centres unmarked) [Compound 21] was tested. Which “Activity against U251” value [1] did it give?
A: Its value is “−”.

Q: CCC(C)C(=O)OCC1=C2/C(=C\C3(C)CCC(O)(O3)[C@H](C)C[C@@H]2O)OC1=O (stereo partly drawn) [zmm-1-18, ((4S,6R,E)-4,7-dihydroxy-6,10-dimethyl-2-oxo-2,4,5,6,7,8,9,10-octahydro-7,10-epoxycyclodeca[b]furan-3-yl)methyl 2-methylbutanoate] was tested. Which “Effect on pY705STAT3 / STAT3 activity (immunoblot), in words” value (“Effect on pY705STAT3 / STAT3 activity” below) [4] did it give?
A: The value was “showed little effects on pY705STAT3”.

Q: For C[C@@H]1C[C@H](O)C2=C(COC(=O)C=Cc3ccccc3)C(=O)O/C2=C/C2(C)CCC1(O)O2 (stereo partly drawn) [zmm-1-19, ((4S,6R,E)-4,7-dihydroxy-6,10-dimethyl-2-oxo-2,4,5,6,7,8,9,10-octahydro-7,10-epoxycyclodeca[b]furan-3-yl)methyl cinnamate], which “Inhibitory potency compared with 22 (CyQuant)” value [1] is on record?
A: The value was “retained the inhibitory potency as 22”.

Q: And the “Effect on pY705STAT3 / STAT3 activity” value [4]?
A: Its value is “inhibited pY705STAT3”.

Q: For CC(C)=CCCC(C)=CC(=O)OCC1=C2/C(=C\C3(C)CCC(O)(O3)[C@H](C)C[C@@H]2O)OC1=O (stereo partly drawn) [zmm-1-20, ((4S,6R,E)-4,7-dihydroxy-6,10-dimethyl-2-oxo-2,4,5,6,7,8,9,10-octahydro-7,10-epoxycyclodeca[b]furan-3-yl)methyl 3,7-dimethylocta-2,6-dienoate], which “Inhibitory potency compared with 22 (CyQuant)” value [1] is on record?
A: Its value is “retained the inhibitory potency as 22”.

Q: And the “Effect on pY705STAT3 / STAT3 activity” value [4]?
A: The value was “inhibited pY705STAT3”.

Q: Which “Effect on pY705STAT3 / STAT3 activity” value [4] does the source give for CC(C)=CC(=O)OCC1=C2/C(=C\C3(C)CCC(O)(O3)[C@H](C)C[C@@H]2O)OC1=O (stereo partly drawn) [zmm-1-21, ((4S,6R,E)-4,7-dihydroxy-6,10-dimethyl-2-oxo-2,4,5,6,7,8,9,10-octahydro-7,10-epoxycyclodeca[b]furan-3-yl)methyl 3-methyl but-2-enoate] here?
A: Its value is “showed little effects on pY705STAT3”.

Q: Which “Inhibitory potency compared with 22 (CyQuant)” value [1] does the source give for CC(C)=CCCC(C)CC(=O)OCC1=C2/C(=C\C3(C)CCC(O)(O3)[C@H](C)C[C@@H]2O)OC1=O (stereo partly drawn) [zmm-1-22, ((4S,6R,E)-4,7-dihydroxy-6,10-dimethyl-2-oxo-2,4,5,6,7,8,9,10-octahydro-7,10-epoxycyclodeca[b]furan-3-yl)methyl 3,7-dimethyloct-6-enoate] here?
A: The value was “retained the inhibitory potency as 22”.

Q: What about the “Effect on pY705STAT3 / STAT3 activity” value [4] of the same compound?
A: The value was “inhibited pY705STAT3”.

Q: Which “Inhibitory potency compared with 22 (CyQuant)” value [1] does the source give for C/C=C(\C)C(=O)OCC1=C2/C(=C\C3(C)CCC(O)(O3)[C@H](C)C[C@@H]2OC(=O)/C(C)=C/C)OC1=O (stereo partly drawn) [zmm-1-36, (4S,6R,E)-7-hydroxy-6,10-dimethyl-3-((((E)-2-methylbut-2-enoyl)oxy)methyl)-2-oxo-2,4,5,6,7,8,9,10-octahydro-7,10-epoxycyclodeca[b]furan-4-yl(E)-2-methylbut-2-enoate] here?
A: The value was “retained the inhibitory potency as 22”.

Q: And the “Cell-type selectivity of growth inhibition, in words” value ([1]; U251MG versus other cells incl. NIH3T3, Table 1/FIG. 2 numbering)?
A: Its value is “lost cell-type specificity”.

Q: And the “Effect on pY705STAT3 / STAT3 activity” value [4]?
A: Its value is “inhibited pY705STAT3”.

Q: C/C=C(\C)C(=O)OCC1=C2/C(=C\C3(C)CCC(OC)(O3)[C@H](C)C[C@@H]2OC(=O)/C(C)=C/C)OC1=O (stereo partly drawn) [zmm-1-37, (4S,6R,E)-7-methoxy-6,10-dimethyl-3-((((E)-2-methylbut-2-enoyl)oxy)methyl)-2-oxo-2,4,5,6,7,8,9,10-octahydro-7,10-epoxycyclodeca[b]furan-4-yl(E)-2-methylbut-2-enoate] was tested. Which “Inhibitory potency compared with 22 (CyQuant)” value [1] did it give?
A: The value was “retained the inhibitory potency as 22”.

Q: What about the “Inhibition of breast cancer MDA-MB-231, in words” value [2] of the same compound?
A: The value was “also inhibited breast cancer, MDA-MB-231”.

Q: And the “Effect on pY705STAT3 / STAT3 activity” value [4]?
A: Its value is “inhibited pY705STAT3”.

Q: How did the “Inhibitory potency compared with 22 (CyQuant)” value [1] turn out when C/C=C(\C)C(=O)O[C@H]1C[C@@H](C)C2(OC)CCC(C)(/C=C3/OC(=O)C(COC(=O)C=Cc4ccccc4)=C31)O2 (stereo partly drawn) [zmm-1-72, (4S,6R,E)-3-((cinnamoyloxy)methyl)-7-methoxy-6,10-dimethyl-2-oxo-2,4,5,6,7,8,9,10-octahydro-7,10-epoxycyclodeca[b]furan-4-yl(E)-2-methylbut-2-enoate] was run?
A: The value was “retained the inhibitory potency as 22”.

Q: C[C@@H]1C[C@H](O)C2=C(COC(=O)/C=C/c3ccc(F)cc3)C(=O)O/C2=C/C2(C)CCC1(O)O2 (some centres unmarked) [zmm-1-78] was tested. Which “Inhibition of breast cancer MDA-MB-231, in words” value [2] did it give?
A: Its value is “also inhibited breast cancer, MDA-MB-231”.

Q: C[C@@H]1C[C@H](O)C2=C(COC(=O)/C=C/c3ccc(C(F)(F)F)cc3)C(=O)O/C2=C/C2(C)CCC1(O)O2 (some centres unmarked) [zmm-1-79] was tested. Which “Inhibitory potency compared with 22 (CyQuant)” value [1] did it give?
A: The value was “retained the inhibitory potency as 22”.

Q: With CCCC(CCC)C(=O)OCC1=C2/C(=C\C3(C)CCC(O)(O3)[C@H](C)C[C@@H]2O)OC1=O (some centres unmarked) [zmm-1-80] as the compound, how does the “Inhibitory potency compared with 22 (CyQuant)” value [1] read?
A: The value was “retained the inhibitory potency as 22”.

Q: C[C@@H]1C[C@H](O)C2=C(COC(=O)CCc3ccccc3)C(=O)O/C2=C/C2(C)CCC1(O)O2 (stereo partly drawn) [zmm-1-82, ((4S,6R,E)-4,7-dihydroxy-6,10-dimethyl-2-oxo-2,4,5,6,7,8,9,10-octahydro-7,10-epoxycyclodeca[b]furan-3-yl)methyl 3-phenylpropanoate] was tested. Which “Inhibitory potency compared with 22 (CyQuant)” value [1] did it give?
A: Its value is “retained the inhibitory potency as 22”.
